# Values of other authors in patent US20190314382A1, “COMPOUNDS AND PHARMACEUTICAL COMPOSITIONS THEREOF FOR THE TREATMENT OF INFLAMMATORY DISEASES” (Galapagos NV, priority 2016, published 2019).
# Test system: MRL/lpr mice
# Details: cited from earlier work
smiles,measurement,value
N#C/C(=C\c1ccc(O)c(O)c1)C(=O)NCc1ccccc1 [tyrphostin AG490],"renal expression of monocyte chemotactic protein (MCP)-1, interferon (IFN)-γ and class II MHC",significantly inhibited
same,renal infiltration of T cells and macrophages,reduced
